Data: patent US11390626B2, “Pyrazolopyrimidine modulators of RAS GTPase” (Tosk, Inc., priority 2019, dated 2022)
pIC50: −log10 of the molar value. Values joined by “and” are separate entries in the source; they are usually repeats but may differ in a detail not shown here. Equal entries are not always repeated. “Also recorded” adds a separate entry of the source. Where two headings read alike, the source gives them in different places.

Experiments:
[1] = tested on: Drosophila melanogaster flies with human G12V kRAS expressed in the wing; assay: Fly screen: reversal of crinkled wing phenotype; type: in vivo
Source text: The Tosk approach uses Drosophila melanogaster flies as media for initial screening for RAS modulating compounds. Tosk has created a fruit fly with human kRAS G12V expressed in its wing. The mutant kRAS expressed in the fly wing appears functional, even though it operates in the presence of the other physiological systems present in the fly. The fly phenotype in the mutant fly is a crimped wing which can be reversed to a great extent if the fly is fed food enriched with an effective kRAS inhibitor. The fly kRAS suppressor screen can provide a more predictive model compared to conventional discovery methods because the kRAS is in its natural (i.e., not artificial/isolated/manipulated) environment anchored to the plasma membrane, positioned correctly, and surrounded by appropriate neighboring chemicals. Several reports have emphasized the importance of kRAS positioning and environment to realize protein activity.
2. Fly with Crinkled Wing Phenotype.
1. Production of Fly Food/Test Article Mix. A Biomek 2000 robotic arm is used to pipet 40 μL of a 10 mM DMSO solution of Test Article into a 35 mL polypropylene Drosophila fly vial (VWR 89092-728) containing 10 mL ETOH. A half teaspoon blue fly food (4-24, Carolina Biological Supply), is added and the tubes are vortexed and placed into a HT-4X GeneVac to remove the DMSO and ETOH. The tube is vortexed, 4 ml water added, and vortexed again. Control samples are tubes with fly food prepared with just 40 μL DMSO, no Test Article, or 40 μL of a DMSO solution containing 50 μM of the trametanib positive control. 2. Screen. Several hundred male G12V kRAS flies and several hundred GAL4 females are placed in a custom Plexiglas population cage (12″×12″×8″) made fly condo containing grape agar and yeast paste prepared using a published protocol. Embryos from the container are washed off the grape agar onto a sieve and re-suspended in an aqueous sucrose/salt/triton solution. An aliquot of this solution is analyzed using a dissecting microscope to determine the embryo concentration. The appropriate solution to deliver 150 embryos is then added to the fly food/Test article vials. The vial is capped with a cellulose fly bottle plug. […] The vials are incubated at 23° C. in a temperature-controlled room for 12 days. 3. Analysis. After 12 days, all flies in a vial are observed under a microscope following CO2 anesthesia for the number of phenotype reversals compared to the total number of viable flies. Cell culture testing is typically performed for any Test Article showing evidence of >25% phenotype reversal. The trametinib positive control provides reversal of the crimped/crinkled phenotype for 50-75% of the flies.
A library of over 16,000 distinct chemicals was purchased from ChemDiv, San Diego, Calif. All the compounds were evaluated in the fly screen described above for the ability to reverse the crinkled wing phenotype. […] One of the three compounds was Structure 1.

phosphorylated ERK = assay: Phosphorylated ERK western blot in SW1990 cells; type: cell-based, human; conditions: 24 hours with compound, EGF 10 ng/mL 15 minutes, FIG. 2
Description: (§1) Structure 1 decreased both phosphorylated AKT and phosphorylated ERK. Structure 1 had no effect on AKT or ERK (data not shown).
(§2) A method used to measure ERK and AKT is based on Welsch et al, Cell 168: 878-889 February 2017. SW1990 cells, growth driven by a G12D kRAS mutation and derived from human, pancreatic cancer cells, are plated in a 6-well plate at 1.5×10^6 cells per plate and grown overnight at 37° C. Media is replaced with serum-free media and the plate incubated an additional 24 hours. Media is replaced with media with or without compound and incubated for an additional 24 hours. EGF is added at a concentration of 10 ng/mL. After 15 minutes, cells are washed with ice cold PBS and lysed with RIPA buffer.
(§3) The lysate is processed by electrophoresis using a Mini-PROTEAN® gel mounted in a Mini-PROTEAN® Tetra Cell (cassette). Both the gel and the holding assembly (cassette) are purchased from BIORAD. The gel in the assembly is placed, electrode up, in the buffer tanks. The Tris/glycine/SDS buffer is added to both the inner buffer chamber (200 mL) and the outer buffer chamber (800 mL). […]
(§4) The membrane is placed into TTBS buffer containing SuperBlock T20 (Thermo Scientific) and incubated for 1 hour at room temperature. […] The anti pERK detected both pERK 1 and 2 (T202/Y204). […]

[2] = tested on: SW620 human cancer cells (G12V kRAS); assay: Cytotoxicity assay (CellTiter-Glo 2.0, 72 hours); type: cell-based
Description: FIG. 1, Cytotoxicity of exemplary compound (Structure 1) on SW620 human cancer cells. The cytotoxicity of compounds of interest are tested against the human colon cancer cell line SW620 as described in the experimental section. SW620 cells express a mutant G12V kRAS. Compounds are incubated with cells for 72 hours and the assay developed using Cell Titer Glo 2.0. IC50 values are determined using GraphPad Prism4.
Structure 1 was assayed for inhibition of cell proliferation and killing cancer cells. Cytotoxicity assays were conducted according to the following general procedure. SW620, SW1990, etc, were all maintained in Leibowitz L15 media supplemented with 10% fetal bovine serum and 1% PenStrep and grown in a 37° C. incubator without supplemental CO2. Cells were plated into 96 well flat bottom plates (2 million/plate, ˜20,000/well, 200 μLmedia/well). The cells were allowed to settle and adhere to plate bottom overnight.
Compounds were diluted in media from a 10 mM stock solution starting at 50 μM, using 2-fold dilutions, in a column in a 96-well plate. Media was removed from the plate containing cells and replaced with media containing diluted compounds. Plates were incubated 72 hours at 37° C. with no supplementary CO2. […] Luminescence was read with a FLx800 (BioTek Instruments). […]

non-phosphorylated AKT = assay: Non-phosphorylated AKT western blot in SW1990 cells; type: cell-based, human; conditions: data not shown
Description: as §1, §2, §3, §4

phosphorylated AKT = assay: Phosphorylated AKT western blot in SW1990 cells; type: cell-based, human; conditions: 24 hours with compound, EGF 10 ng/mL 15 minutes, FIG. 2
Description: as §1, §2, §3, §4

non-phosphorylated ERK = assay: Non-phosphorylated ERK western blot in SW1990 cells; type: cell-based, human; conditions: data not shown
Description: as §1, §2, §3, §4

AKT2 = AKT2 (Homo sapiens, UniProt P31751); assay: Protein kinase inhibition; type: biochemical; conditions: tested at 3 μM
Description: (§5) The exemplary compound was also tested at 3 μM for protein kinase inhibition against the following protein kinases: AKT1, AKT2, AKT3, EGF-R, EGF-R (L858R mutation), FRAP1, GSK3B, MAPK1 (ERK2), MAPK3 (ERK1), BRAF, BRAF V599E, MAP2K1 (MEK1), MAP2K2 (MEK2), PDK1, RAF1, PI3K C2A, PI3K C2B, P13K C3, PI3K 3A, PI3K CB, PI3K CD, and PI3K CG. […] The main downstream targets for kRAS are ERK (Samatar et al., Targeting RAS-ERK signaling in cancer: promises and challenges. Nat Rev Drug Discov. 2014; 13:928-42 and Martini et al., Ann Med. 2014; 46:372-83). kRAS activates ERK and AKT leading to phosphorylated ERK and phosphorylated AKT. A compound that suppresses kRAS activity is expected to lower phosphorylated ERK and phosphorylated AKT.

BRAF V599E = BRAF V599E (Homo sapiens, UniProt P15056, V600E); assay: Protein kinase inhibition; type: biochemical; conditions: tested at 3 μM
Chain of BRAF V599E (P15056 whole entry V600E): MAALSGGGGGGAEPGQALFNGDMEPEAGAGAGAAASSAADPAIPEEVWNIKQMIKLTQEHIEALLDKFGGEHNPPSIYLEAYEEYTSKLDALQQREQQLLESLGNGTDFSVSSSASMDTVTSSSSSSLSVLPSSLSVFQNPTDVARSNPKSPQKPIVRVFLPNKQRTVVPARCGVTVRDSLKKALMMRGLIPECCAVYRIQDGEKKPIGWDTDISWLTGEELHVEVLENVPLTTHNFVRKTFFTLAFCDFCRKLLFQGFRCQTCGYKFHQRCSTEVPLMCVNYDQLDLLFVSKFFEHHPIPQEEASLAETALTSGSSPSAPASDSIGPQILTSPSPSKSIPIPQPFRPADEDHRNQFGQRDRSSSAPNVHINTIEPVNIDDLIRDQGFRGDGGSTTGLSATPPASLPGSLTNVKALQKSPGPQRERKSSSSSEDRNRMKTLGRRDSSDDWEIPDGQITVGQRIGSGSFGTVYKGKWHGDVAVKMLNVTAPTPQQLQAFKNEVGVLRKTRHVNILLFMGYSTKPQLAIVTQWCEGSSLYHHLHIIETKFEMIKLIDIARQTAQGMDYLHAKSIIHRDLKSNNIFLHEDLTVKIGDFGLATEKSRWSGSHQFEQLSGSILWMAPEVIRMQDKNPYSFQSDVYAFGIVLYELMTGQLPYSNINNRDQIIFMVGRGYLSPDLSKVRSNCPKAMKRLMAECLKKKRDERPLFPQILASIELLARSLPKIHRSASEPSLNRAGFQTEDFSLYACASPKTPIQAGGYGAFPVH
Description: as §5

PI3K CB = PI3K CB (Homo sapiens, UniProt P42338); assay: Protein kinase inhibition; type: biochemical; conditions: tested at 3 μM
Description: as §5

EGF-R = EGF-R (Homo sapiens, UniProt P00533); assay: Protein kinase inhibition; type: biochemical; conditions: tested at 3 μM
Chain of EGF-R (P00533 25-1210, species assumed): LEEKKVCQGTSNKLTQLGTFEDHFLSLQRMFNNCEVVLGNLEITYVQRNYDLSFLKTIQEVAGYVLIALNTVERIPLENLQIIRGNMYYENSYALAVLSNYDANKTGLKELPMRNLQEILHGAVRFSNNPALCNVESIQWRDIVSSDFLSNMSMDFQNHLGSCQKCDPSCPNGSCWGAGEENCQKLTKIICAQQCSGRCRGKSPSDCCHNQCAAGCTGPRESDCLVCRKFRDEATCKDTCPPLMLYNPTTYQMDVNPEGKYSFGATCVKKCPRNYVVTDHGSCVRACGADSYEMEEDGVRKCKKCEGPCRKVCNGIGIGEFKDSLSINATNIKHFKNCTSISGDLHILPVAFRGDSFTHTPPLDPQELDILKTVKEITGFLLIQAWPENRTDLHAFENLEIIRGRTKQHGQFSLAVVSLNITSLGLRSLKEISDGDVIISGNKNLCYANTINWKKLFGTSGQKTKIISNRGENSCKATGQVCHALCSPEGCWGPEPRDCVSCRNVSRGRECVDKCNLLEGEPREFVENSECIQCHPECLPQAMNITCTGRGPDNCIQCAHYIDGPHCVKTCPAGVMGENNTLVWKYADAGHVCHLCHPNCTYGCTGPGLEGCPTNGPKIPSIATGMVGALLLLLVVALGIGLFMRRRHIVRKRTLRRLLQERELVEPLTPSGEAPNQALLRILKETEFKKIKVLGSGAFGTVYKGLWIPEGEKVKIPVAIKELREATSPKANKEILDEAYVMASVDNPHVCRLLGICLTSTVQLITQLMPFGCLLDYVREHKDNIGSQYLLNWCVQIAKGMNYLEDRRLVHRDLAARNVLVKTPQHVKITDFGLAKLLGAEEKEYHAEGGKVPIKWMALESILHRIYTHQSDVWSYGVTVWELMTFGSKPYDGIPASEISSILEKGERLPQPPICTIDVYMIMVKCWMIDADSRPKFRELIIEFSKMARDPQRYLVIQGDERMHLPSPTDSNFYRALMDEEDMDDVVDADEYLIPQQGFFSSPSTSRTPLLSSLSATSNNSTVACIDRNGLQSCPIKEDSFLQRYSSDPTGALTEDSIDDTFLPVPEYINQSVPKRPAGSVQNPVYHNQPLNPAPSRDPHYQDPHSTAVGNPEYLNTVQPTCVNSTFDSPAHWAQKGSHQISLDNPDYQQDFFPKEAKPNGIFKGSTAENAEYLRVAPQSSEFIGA
Description: as §5

PI3K 3A = PI3K 3A (Homo sapiens, UniProt P42336); assay: Protein kinase inhibition; type: biochemical; conditions: tested at 3 μM
Description: as §5

AKT3 = AKT3 (Homo sapiens, UniProt Q9Y243); assay: Protein kinase inhibition; type: biochemical; conditions: tested at 3 μM
Description: as §5

EGF-R (L858R mutation) = EGF-R (L858R mutation) (Homo sapiens, UniProt P00533, L858R); assay: Protein kinase inhibition; type: biochemical; conditions: tested at 3 μM
Description: as §5

RAF1 = RAF1 (Homo sapiens, UniProt P04049); assay: Protein kinase inhibition; type: biochemical; conditions: tested at 3 μM
Chain of RAF1 (P04049 whole entry, species assumed): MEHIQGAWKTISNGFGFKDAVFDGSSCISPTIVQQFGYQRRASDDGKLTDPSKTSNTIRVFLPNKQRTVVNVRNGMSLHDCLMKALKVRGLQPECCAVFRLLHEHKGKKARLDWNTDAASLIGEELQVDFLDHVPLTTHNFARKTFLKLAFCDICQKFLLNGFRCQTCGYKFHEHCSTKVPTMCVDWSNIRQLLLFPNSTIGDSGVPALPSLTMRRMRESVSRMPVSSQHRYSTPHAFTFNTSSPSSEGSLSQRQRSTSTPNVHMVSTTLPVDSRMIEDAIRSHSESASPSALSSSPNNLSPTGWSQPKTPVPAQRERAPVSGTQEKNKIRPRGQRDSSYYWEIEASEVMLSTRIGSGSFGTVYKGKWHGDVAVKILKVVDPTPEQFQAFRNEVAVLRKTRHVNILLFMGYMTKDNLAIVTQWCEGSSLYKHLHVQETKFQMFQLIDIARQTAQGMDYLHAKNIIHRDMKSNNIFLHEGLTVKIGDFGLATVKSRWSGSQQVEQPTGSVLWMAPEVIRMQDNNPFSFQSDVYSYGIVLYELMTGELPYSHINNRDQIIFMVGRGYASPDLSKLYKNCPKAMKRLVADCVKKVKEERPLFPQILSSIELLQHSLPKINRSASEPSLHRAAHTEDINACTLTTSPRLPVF
Description: as §5

BRAF = BRAF (Homo sapiens, UniProt P15056); assay: Protein kinase inhibition; type: biochemical; conditions: tested at 3 μM
Chain of BRAF (P15056 whole entry, species assumed): as the sequence (P15056 whole entry V600E) above, with E600V counted along it
Description: as §5

MAPK1 (ERK2) = MAPK1 (ERK2) (Homo sapiens, UniProt P28482); assay: Protein kinase inhibition; type: biochemical; conditions: tested at 3 μM
Description: as §5

PI3K C2B = PI3K C2B (Homo sapiens, UniProt O00750); assay: Protein kinase inhibition; type: biochemical; conditions: tested at 3 μM
Description: as §5

MAP2K1 (MEK1) = MAP2K1 (MEK1) (Homo sapiens, UniProt Q02750); assay: Protein kinase inhibition; type: biochemical; conditions: tested at 3 μM
Description: as §5

GSK3B = GSK3B (Homo sapiens, UniProt P49841); assay: Protein kinase inhibition; type: biochemical; conditions: tested at 3 μM
Description: as §5

MAP2K2 (MEK2) = MAP2K2 (MEK2) (Homo sapiens, UniProt P36507); assay: Protein kinase inhibition; type: biochemical; conditions: tested at 3 μM
Description: as §5

PI3K C2A = PI3K C2A (Homo sapiens, UniProt O00443); assay: Protein kinase inhibition; type: biochemical; conditions: tested at 3 μM
Chain of PI3K C2A (O00443 whole entry): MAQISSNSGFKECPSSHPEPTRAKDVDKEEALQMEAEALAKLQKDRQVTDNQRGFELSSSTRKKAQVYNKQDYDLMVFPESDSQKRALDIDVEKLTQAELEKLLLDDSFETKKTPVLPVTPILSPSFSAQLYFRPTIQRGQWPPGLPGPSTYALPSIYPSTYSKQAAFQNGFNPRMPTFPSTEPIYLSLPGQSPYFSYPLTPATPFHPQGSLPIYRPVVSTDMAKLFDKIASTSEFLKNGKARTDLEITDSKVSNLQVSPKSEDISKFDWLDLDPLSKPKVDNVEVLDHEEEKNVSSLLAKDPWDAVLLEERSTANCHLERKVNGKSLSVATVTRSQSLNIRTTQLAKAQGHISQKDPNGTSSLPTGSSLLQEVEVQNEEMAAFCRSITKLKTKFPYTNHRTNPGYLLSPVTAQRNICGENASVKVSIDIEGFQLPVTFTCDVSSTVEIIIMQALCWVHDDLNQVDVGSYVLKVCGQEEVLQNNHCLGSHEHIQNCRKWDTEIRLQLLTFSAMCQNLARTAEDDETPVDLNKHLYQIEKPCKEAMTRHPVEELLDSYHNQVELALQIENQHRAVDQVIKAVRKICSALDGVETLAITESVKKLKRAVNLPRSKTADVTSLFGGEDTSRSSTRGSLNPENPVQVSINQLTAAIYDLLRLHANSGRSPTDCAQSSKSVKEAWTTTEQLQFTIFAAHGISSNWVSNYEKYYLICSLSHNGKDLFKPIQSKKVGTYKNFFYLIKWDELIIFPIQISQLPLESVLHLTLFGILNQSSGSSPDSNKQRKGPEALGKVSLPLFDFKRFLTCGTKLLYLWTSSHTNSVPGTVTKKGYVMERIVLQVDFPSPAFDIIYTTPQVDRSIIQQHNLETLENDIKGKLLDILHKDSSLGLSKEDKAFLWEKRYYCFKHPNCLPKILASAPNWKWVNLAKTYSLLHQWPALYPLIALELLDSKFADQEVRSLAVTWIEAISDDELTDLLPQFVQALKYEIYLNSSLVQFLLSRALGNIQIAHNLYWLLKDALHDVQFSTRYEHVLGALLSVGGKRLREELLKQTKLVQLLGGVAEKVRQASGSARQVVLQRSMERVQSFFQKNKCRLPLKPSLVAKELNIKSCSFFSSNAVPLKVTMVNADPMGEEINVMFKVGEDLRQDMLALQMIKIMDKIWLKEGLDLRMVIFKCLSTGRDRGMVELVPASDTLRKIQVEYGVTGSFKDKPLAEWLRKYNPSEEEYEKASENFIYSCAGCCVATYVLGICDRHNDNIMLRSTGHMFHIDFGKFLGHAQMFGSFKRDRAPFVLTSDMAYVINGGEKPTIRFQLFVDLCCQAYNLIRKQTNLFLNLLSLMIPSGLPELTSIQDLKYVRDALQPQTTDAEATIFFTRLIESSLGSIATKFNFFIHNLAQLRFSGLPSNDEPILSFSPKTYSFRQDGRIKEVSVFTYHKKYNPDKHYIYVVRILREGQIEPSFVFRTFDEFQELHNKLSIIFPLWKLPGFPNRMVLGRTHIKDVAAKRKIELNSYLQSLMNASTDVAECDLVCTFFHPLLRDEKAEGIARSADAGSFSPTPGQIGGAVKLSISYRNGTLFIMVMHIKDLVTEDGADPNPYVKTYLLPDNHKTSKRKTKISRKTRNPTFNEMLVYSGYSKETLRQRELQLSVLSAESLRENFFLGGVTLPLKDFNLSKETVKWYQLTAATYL
Description: as §5

AKT1 = AKT1 (Homo sapiens, UniProt P31749); assay: Protein kinase inhibition; type: biochemical; conditions: tested at 3 μM
Description: as §5

PI3K CD = PI3K CD (Homo sapiens, UniProt O00329); assay: Protein kinase inhibition; type: biochemical; conditions: tested at 3 μM
Description: as §5

P13K C3 = P13K C3 (Homo sapiens, UniProt Q8NEB9); assay: Protein kinase inhibition; type: biochemical; conditions: tested at 3 μM
Description: as §5

MAPK3 (ERK1) = MAPK3 (ERK1) (Homo sapiens, UniProt P27361); assay: Protein kinase inhibition; type: biochemical; conditions: tested at 3 μM
Description: as §5

FRAP1 = FRAP1 (Homo sapiens, UniProt P42345); assay: Protein kinase inhibition; type: biochemical; conditions: tested at 3 μM
Description: as §5

PI3K CG = PI3K CG (Homo sapiens, UniProt P48736); assay: Protein kinase inhibition; type: biochemical; conditions: tested at 3 μM
Description: as §5

PDK1 = PDK1 (Homo sapiens, UniProt O15530); assay: Protein kinase inhibition; type: biochemical; conditions: tested at 3 μM
Chain of PDK1 (O15530 whole entry): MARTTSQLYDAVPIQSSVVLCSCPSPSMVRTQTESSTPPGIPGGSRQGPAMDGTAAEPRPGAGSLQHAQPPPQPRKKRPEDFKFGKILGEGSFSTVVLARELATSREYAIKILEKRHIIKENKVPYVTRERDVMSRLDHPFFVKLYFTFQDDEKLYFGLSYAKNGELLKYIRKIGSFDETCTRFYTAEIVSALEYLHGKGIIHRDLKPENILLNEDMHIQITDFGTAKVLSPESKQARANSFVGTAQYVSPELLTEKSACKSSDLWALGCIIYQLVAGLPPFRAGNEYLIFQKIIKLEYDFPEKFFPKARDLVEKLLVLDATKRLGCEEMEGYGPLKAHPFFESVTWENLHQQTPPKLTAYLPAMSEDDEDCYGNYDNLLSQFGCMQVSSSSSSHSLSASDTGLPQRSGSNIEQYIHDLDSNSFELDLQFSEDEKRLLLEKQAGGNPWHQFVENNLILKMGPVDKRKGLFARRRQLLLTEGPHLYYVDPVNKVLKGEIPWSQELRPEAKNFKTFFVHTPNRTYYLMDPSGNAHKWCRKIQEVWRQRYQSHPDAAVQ
Description: as §5

CC(=O)Nc1cccc(-n2c(=O)n(C3CC3)c(=O)c3c(Nc4ccc(I)cc4F)n(C)c(=O)c(C)c32)c1 [Trametinib]
Reversal of the crimped/crinkled phenotype, share of the flies (positive control, general) ([1]; 40 μL of 50 μM DMSO solution in fly food, 12 days): 50-75%
Flies with Reversed Phenotype ([1]; Experiment 1, 0.5 μM in fly food): 29%
Flies with Reversed Phenotype ([1]; Experiment 2, 0.5 μM in fly food): 63% and 64%
Flies with Reversed Phenotype ([1]; Experiment 2, 0.5 μM in fly food, listed as trametinib): 63% and 64%

Cc1nc2c(-c3ccccc3)c(C)nn2c(NCc2ccccn2)c1Cc1ccccc1 [Structure 1]
Effect on phosphorylated ERK (phosphorylated ERK): decreased; also recorded: suppressed
pIC50 ([2]; SW-620, Cell Titer Glo 2.0, read-out: IC50, cytotoxicity on SW620 human cancer cells (FIG. 1 legend)): 5.41
pIC50 ([2]; SW-620, CellTiter-Glo 2.0, read-out: IC50 in the SW620 cells): 5.41
Flies with Reversed Phenotype ([1]; Experiment 1, 20 μM in fly food): 75%
Flies with phenotype reversals relative to positive control trametinib ([1]; Experiment 1, 75% versus 29%): over 2.5 fold
Flies with Reversed Phenotype ([1]; Experiment 2, 20 μM in fly food): 58%
Ability to reverse the crinkled wing phenotype in library screen ([1]; screen of over 16,000 ChemDiv compounds, ~100 μM in fly food, 12 days): reliably reversed the phenotype
Effect on non-phosphorylated AKT (non-phosphorylated AKT): no effect; also recorded: without affecting
Effect on phosphorylated AKT (phosphorylated AKT): decreased; also recorded: suppressed
Effect on non-phosphorylated ERK (non-phosphorylated ERK): no effect; also recorded: without affecting
Kinase inhibitory activity, AKT2 (AKT2): No kinase inhibitory activity
Kinase inhibitory activity, BRAF V599E (BRAF V599E): No kinase inhibitory activity
Kinase inhibitory activity, PI3K CB (PI3K CB): No kinase inhibitory activity
Kinase inhibitory activity, EGF-R (EGF-R): No kinase inhibitory activity
Kinase inhibitory activity, PI3K 3A (PI3K 3A): No kinase inhibitory activity
Kinase inhibitory activity, AKT3 (AKT3): No kinase inhibitory activity
Kinase inhibitory activity, EGF-R (L858R mutation) (EGF-R (L858R mutation)): No kinase inhibitory activity
Kinase inhibitory activity, RAF1 (RAF1): No kinase inhibitory activity
Kinase inhibitory activity, BRAF (BRAF): No kinase inhibitory activity
Kinase inhibitory activity, MAPK1 (ERK2) (MAPK1 (ERK2)): No kinase inhibitory activity
Kinase inhibitory activity, PI3K C2B (PI3K C2B): No kinase inhibitory activity
Kinase inhibitory activity, MAP2K1 (MEK1) (MAP2K1 (MEK1)): No kinase inhibitory activity
Kinase inhibitory activity, GSK3B (GSK3B): No kinase inhibitory activity
Kinase inhibitory activity, MAP2K2 (MEK2) (MAP2K2 (MEK2)): No kinase inhibitory activity
Kinase inhibitory activity, PI3K C2A (PI3K C2A): No kinase inhibitory activity
Kinase inhibitory activity, AKT1 (AKT1): No kinase inhibitory activity
Kinase inhibitory activity, PI3K CD (PI3K CD): No kinase inhibitory activity
Kinase inhibitory activity, P13K C3 (P13K C3): No kinase inhibitory activity
Kinase inhibitory activity, MAPK3 (ERK1) (MAPK3 (ERK1)): No kinase inhibitory activity
Kinase inhibitory activity, FRAP1 (FRAP1): No kinase inhibitory activity
Kinase inhibitory activity, PI3K CG (PI3K CG): No kinase inhibitory activity
Kinase inhibitory activity, PDK1 (PDK1): No kinase inhibitory activity
